In ChEMBL document CHEMBL1139902, “Synthesis and SAR of succinamide peptidomimetic inhibitors of cathepsin S” (Bioorg Med Chem Lett, 2007):
pKi: −log10 of the molar value.

Key:
[1] = AUC in Wistar rat at 10 mg/kg, po; type: ADME, organism-based; set-up: dose 10 mg/kg, route oral; conditions: plasma
[2] = Cmax in Wistar rat at 10 mg/kg. po; type: ADME, organism-based; set-up: dose 10 mg/kg, route oral; conditions: in vivo
[3] = Tmax in Wistar rat at 10 mg/kg. po; type: ADME, organism-based; set-up: dose 10 mg/kg, route oral; conditions: in vivo
[4] = Half life in Wistar rat at 10 mg/kg. po; type: ADME, organism-based; set-up: dose 10 mg/kg, route oral; conditions: in vivo
[5] = molecular target: T1, Cathepsin K (Homo sapiens, UniProt P43235); assay: Inhibition of cathepsin K
T1 sequence (P43235 whole entry): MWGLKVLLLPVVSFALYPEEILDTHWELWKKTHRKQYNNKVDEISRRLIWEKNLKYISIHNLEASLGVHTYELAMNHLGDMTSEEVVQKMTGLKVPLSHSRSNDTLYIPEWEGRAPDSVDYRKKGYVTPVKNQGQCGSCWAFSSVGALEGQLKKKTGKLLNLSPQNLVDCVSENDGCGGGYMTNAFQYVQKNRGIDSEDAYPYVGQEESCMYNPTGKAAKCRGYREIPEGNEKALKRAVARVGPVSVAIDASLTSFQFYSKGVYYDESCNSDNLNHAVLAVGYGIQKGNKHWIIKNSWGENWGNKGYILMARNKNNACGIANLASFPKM

[6] = molecular target: Procathepsin L (Homo sapiens, UniProt P07711); assay: Inhibition of cathepsin L
Sequence of Procathepsin L (P07711 whole entry): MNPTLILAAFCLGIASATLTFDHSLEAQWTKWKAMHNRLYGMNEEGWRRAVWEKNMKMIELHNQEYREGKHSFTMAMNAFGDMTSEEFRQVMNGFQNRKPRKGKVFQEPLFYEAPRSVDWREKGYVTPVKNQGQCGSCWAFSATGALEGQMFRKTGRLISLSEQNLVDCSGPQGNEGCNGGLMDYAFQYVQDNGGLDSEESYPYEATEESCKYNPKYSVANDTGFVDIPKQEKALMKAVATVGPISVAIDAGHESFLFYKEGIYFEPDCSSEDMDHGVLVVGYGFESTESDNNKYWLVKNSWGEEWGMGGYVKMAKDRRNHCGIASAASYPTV

[7] = molecular target: Cathepsin S (Homo sapiens, UniProt P25774)
Sequence of Cathepsin S (P25774 whole entry): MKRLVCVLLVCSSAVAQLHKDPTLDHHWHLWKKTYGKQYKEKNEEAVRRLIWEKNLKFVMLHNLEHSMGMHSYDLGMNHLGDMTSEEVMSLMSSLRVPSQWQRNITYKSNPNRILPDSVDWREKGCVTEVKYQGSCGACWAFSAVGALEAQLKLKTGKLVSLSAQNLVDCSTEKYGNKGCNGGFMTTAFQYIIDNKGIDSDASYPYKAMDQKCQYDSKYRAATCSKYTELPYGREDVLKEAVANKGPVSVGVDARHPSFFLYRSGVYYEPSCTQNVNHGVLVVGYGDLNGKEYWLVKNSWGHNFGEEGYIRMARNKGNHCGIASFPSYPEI
Description: Inhibition of cathepsin S

AUC [1] [µM·h] | Cmax [2] [nM] | Tmax [3] [h] | half-life [4] [min] | pKi [5] | pKi [6] | pKi [7] | SMILES
2.82 | 720 | 2 | 109 | < 4.00 | < 4.00 |  | CC(C)[C@@H](CNc1ccc(OC(F)(F)F)cc1)NC(=O)[C@@H](CC(=O)N1CCOCC1)c1ccc(Cl)cc1
2.04 | 789 | 1 | 63.6 | < 4.52 | < 4.19 |  | COc1ccc([C@H](CC(=O)N2CCOCC2)C(=O)N[C@H](CNc2ccc(OC(F)(F)F)cc2)C(C)C)cc1
 |  |  |  | 5.63 | < 4.00 |  | C[C@@H](CNc1ccc(OC(F)(F)F)cc1)NC(=O)[C@@H](CC(=O)N1CCOCC1)CC(C)(C)C
 |  |  |  | < 4.00 | < 4.00 |  | C[C@@H](CNc1ccc(OC(F)(F)F)cc1)NC(=O)[C@H](CCC(C)(C)C)CC(=O)N1CCOCC1
 |  |  |  | < 4.52 | 5.05 | < 4.62 | C[C@@H](CN1CCc2cc(F)ccc21)NC(=O)[C@@H](CC(=O)N1CCOCC1)Cc1ccccc1
 |  |  |  | < 4.52 | < 4.00 | 6.87 | Cc1ccc([C@H](CC(=O)N2CCOCC2)C(=O)N[C@H](CNc2ccc(OC(F)(F)F)cc2)C(C)C)cc1
4.63 | 946 | 2 | 136 | < 4.00 | < 4.00 | 7.37 | CC(C)[C@@H](CNc1ccc(OC(F)(F)F)cc1)NC(=O)[C@@H](CC(=O)N1CCOCC1)c1ccc(C(F)(F)F)cc1
 |  |  |  | < 4.00 | < 4.00 | < 4.00 | O=C(C[C@H](CC1CCCCC1)C(=O)N1CCOCC1)NCCNc1ccc(F)cc1
 |  |  |  | 5.83 | 6.20 | 7.74 | O=C(N[C@@H](CCc1ccccc1)CNc1ccc(OC(F)(F)F)cc1)[C@@H](CC(=O)N1CCOCC1)CC1CCCCC1
 |  |  |  | < 4.00 | < 4.00 | < 4.00 | CC(C)[C@@H](CNc1ccc(OC(F)(F)F)cc1)NC(=O)[C@@H](CC(=O)N1CCOCC1)c1ccccc1C(F)(F)F
2.78 | 983 | 1.5 | 52.2 | 4.61 | 4.72 | 7.55 | C[C@@H](CNc1ccc(OC(F)(F)F)cc1)NC(=O)[C@@H](CC(=O)N1CCOCC1)CC1CCCCC1
 |  |  |  | 6.04 | 6.57 |  | CC[C@@H](CNc1ccc(OC(F)(F)F)cc1)NC(=O)[C@@H](CC(=O)N1CCOCC1)CC1CCCCC1
 |  |  |  | 5.27 |  | 7.16 | CS(=O)(=O)CC[C@H](CNc1ccc(OC(F)(F)F)cc1)NC(=O)[C@@H](CC(=O)N1CCOCC1)CC1CCCCC1
 |  |  |  | 6.54 | 6.23 | 7.22 | CC[C@@H](CNc1ccc(OC(F)(F)F)cc1)NC(=O)[C@H](CCc1ccccc1)CC(=O)N1CCOCC1
0.048 | 24 | 0.42 | 67.2 |  |  |  | C[C@@H](CN1CCc2cc(F)ccc21)NC(=O)[C@@H](CC(=O)N1CCOCC1)CC1CCCCC1
0.752 | 220 | 1.83 | 73.8 | 6.25 | 6.55 | 7.89 | CCC[C@@H](CNc1ccc(OC(F)(F)F)cc1)NC(=O)[C@@H](CC(=O)N1CCOCC1)CC1CCCCC1
 |  |  |  | < 4.00 | < 4.00 | 6.21 | O=C(N[C@H](CNc1ccc(OC(F)(F)F)cc1)C1CC1)[C@@H](CC(=O)N1CCOCC1)c1ccc(C(F)(F)F)cc1
 |  |  |  | < 4.52 | < 4.52 | 5.86 | O=C(NCCNc1ccc(F)cc1)[C@@H](CC(=O)N1CCOCC1)CC1CCCCC1
 |  |  |  | < 4.00 | < 4.00 | < 4.00 | O=C(NCCNc1ccc(F)cc1)[C@H](CC(=O)N1CCOCC1)CC1CCCCC1
 |  |  |  | < 4.00 | < 4.00 | 5.76 | O=C(C[C@@H](CC1CCCCC1)C(=O)N1CCOCC1)NCCNc1ccc(F)cc1

AUC [1] [µM·h] | Cmax [2] [nM] | Tmax [3] [h] | half-life [4] [min] | pKi [5] | pKi [6] | pKi [7] | SMILES
1.91 | 647 | 0.7 | 55.2 | 4.94 | 4.94 | 7.60 | CC(C)[C@@H](CNc1ccc(OC(F)(F)F)cc1)NC(=O)[C@@H](CC(=O)N1CCOCC1)c1ccccc1
0.806 | 318 | 1 | 40.8 | 5.43 | < 4.52 |  | C[C@@H](CNc1ccc(OC(F)(F)F)cc1)NC(=O)[C@@H](CC(=O)N1CCOCC1)CC1CCCC1
 |  |  |  | 5.94 |  | 7.42 | CC(C)[C@@H](CNc1ccc(OC(F)(F)F)cc1)NC(=O)[C@@H](CC(=O)N1CCOCC1)CC1CCCC1
 |  |  |  | < 4.52 | 5.64 | 6.70 | O=C(N[C@@H](CCc1ccccc1)CNc1ccc(OC(F)(F)F)cc1)[C@H](CCC1CCCC1)CC(=O)N1CCOCC1
 |  |  |  | 6.74 | 6.43 | 7.57 | CC(C)[C@@H](CNc1ccc(OC(F)(F)F)cc1)NC(=O)[C@H](CCc1ccccc1)CC(=O)N1CCOCC1
 |  |  |  | 5.67 |  | 7.85 | CC(C)[C@@H](CNc1ccc(OC(F)(F)F)cc1)NC(=O)[C@H](CCCc1ccccc1)CC(=O)N1CCOCC1
 |  |  |  | 6.59 |  | 8.30 | CS(=O)(=O)CC[C@@H](CNc1ccc(OC(F)(F)F)cc1)NC(=O)[C@@H](CC(=O)N1CCOCC1)CC1CCCCC1
 |  |  |  | 6.15 |  | 7.43 | O=C(N[C@@H](CCc1ccccc1)CNc1ccc(OC(F)(F)F)cc1)[C@@H](CC(=O)N1CCOCC1)c1ccccc1
 |  |  |  | 4.98 |  | 6.58 | O=C(N[C@H](CNc1ccc(OC(F)(F)F)cc1)c1ccccc1)[C@@H](CC(=O)N1CCOCC1)c1ccccc1
1.87 | 629 | 1.67 | 58.2 | 4.94 | 4.94 | 7.62 | CC(C)[C@@H](CNc1ccc(OC(F)(F)F)cc1)NC(=O)[C@@H](CC(=O)N1CCOCC1)c1ccc(F)cc1
 |  |  |  | 5.43 | < 4.52 | 7.02 | C[C@@H](CNc1ccc(OC(F)(F)F)cc1)NC(=O)[C@H](CCC1CCCCC1)CC(=O)N1CCOCC1
 |  |  |  | 6.66 | 5.57 | 7.92 | CCC[C@@H](CNc1ccc(OC(F)(F)F)cc1)NC(=O)[C@@H](CC(=O)N1CCOCC1)CC1CCCC1
 |  |  |  | < 4.00 | < 4.52 | 6.71 | O=C(NCCNc1ccc(OC(F)(F)F)cc1)[C@@H](CC(=O)N1CCOCC1)CC1CCCCC1
0.312 | 140 | 0.33 | 67.2 |  |  |  | O=C(NCCN1CCc2cc(F)ccc21)[C@H](CC1CCCCC1)NC(=O)N1CCOCC1
 |  |  |  | < 4.58 |  | 7.96 | CC(C)[C@@H](CNc1ccc(OC(F)(F)F)cc1)NC(=O)[C@H](CCC1CCCC1)CC(=O)N1CCOCC1
 |  |  |  | < 4.00 | < 4.52 | 4.73 | CC(C)[C@@H](CNc1ccc(OC(F)(F)F)cc1)NC(=O)[C@@H](CC(=O)N1CCOCC1)c1cccc(C(F)(F)F)c1
 |  |  |  | < 4.00 | < 4.00 |  | C[C@@H](CNc1ccc(OC(F)(F)F)cc1)NC(=O)[C@@H](CC(=O)N1CCOCC1)c1ccc(C(F)(F)F)cc1
 |  |  |  | < 4.00 |  |  | O=C(NCCNc1ccc(OC(F)(F)F)cc1)[C@@H](CC(=O)N1CCOCC1)c1ccc(C(F)(F)F)cc1
0.831 | 241 | 1.7 | 63.6 | 6.00 |  | 7.96 | CC(C)[C@@H](CNc1ccc(OC(F)(F)F)cc1)NC(=O)[C@@H](CC(=O)N1CCOCC1)CC1CCCCC1
2.77 | 815 | 2 | 73.2 | < 4.52 | 5.45 | 7.21 | O=C(N[C@H](CNc1ccc(OC(F)(F)F)cc1)c1ccccc1)[C@@H](CC(=O)N1CCOCC1)CC1CCCCC1
